In ChEMBL document CHEMBL2062412, “Structure and bioassay of triterpenoids and steroids isolated from Sinocalamus affinis” (J Nat Prod, 2012):

Biological target: T1, Tyrosine-protein phosphatase non-receptor type 1 (Homo sapiens, UniProt P18031)
T1 sequence (P18031 whole entry): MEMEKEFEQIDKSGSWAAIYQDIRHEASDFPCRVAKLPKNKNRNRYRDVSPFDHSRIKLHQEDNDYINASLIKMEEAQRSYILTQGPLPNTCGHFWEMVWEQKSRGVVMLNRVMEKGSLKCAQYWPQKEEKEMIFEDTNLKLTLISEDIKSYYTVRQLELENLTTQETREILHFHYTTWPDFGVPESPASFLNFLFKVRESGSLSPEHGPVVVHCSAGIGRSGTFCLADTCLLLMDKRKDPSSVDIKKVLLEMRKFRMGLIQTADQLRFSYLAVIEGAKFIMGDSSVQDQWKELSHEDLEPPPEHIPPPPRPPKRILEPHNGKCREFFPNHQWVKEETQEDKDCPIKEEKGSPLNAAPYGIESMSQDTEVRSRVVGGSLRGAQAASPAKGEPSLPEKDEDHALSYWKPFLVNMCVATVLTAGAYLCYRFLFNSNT
Assay: Inhibition of GST-tagged human recombinant PTP1B using para-nitrophenyl phosphate as substrate by spectrophotometric analysis

IC50, 6.8 µM:
CC(C)[C@@H]1CC(=O)[C@H]2[C@@]1(CO)CC[C@@]1(C)[C@H]3C(=CC[C@]21C)C1=C(C[C@@H]3O)C(C)(C)[C@@H](O)CC1
CC(C)[C@@H]1C[C@@H](O)[C@H]2[C@@]1(CO)CC[C@@]1(C)[C@H]3C(=CC[C@]21C)C1=C(C[C@@H]3O)C(C)(C)[C@@H](O)CC1
CC(C)[C@@H]1C[C@@H](O)[C@H]2[C@@]1(CO)CC[C@@]1(C)[C@H]3C(=CC[C@]21C)C1=C(C[C@@H]3O)[C@](C)(CO)[C@@H](O)CC1
CC(C)[C@@H]1[C@H](O)[C@@H](O)[C@H]2[C@@]1(CO)CC[C@@]1(C)[C@H]3C(=CC[C@]21C)C1=C(C[C@@H]3O)C(C)(C)[C@@H](O)CC1
CC(C)[C@@H]1C[C@@H](O)[C@H]2[C@@]1(CO)CC[C@@]1(C)[C@H]3C(=CC[C@]21C)C1=CC[C@H](O)C(C)(C)[C@H]1C[C@@H]3O
